Values after ≈ are worked out from the molar mass of the structure shown. Blank lines part the entries; values can stand above or below the molecule they belong to. Active and inactive are the calls of the source. The calls are words filed in the database; no cut-off is given here.
How the values were obtained:
[1] = test system: PBMC; experiment: Inhibition of TNFalpha release in human PBMC by ELISA assay; assay type: functional, cell-based
[2] = test system: Blood; experiment: Inhibition of TNFalpha release in LPS-stimulated human whole blood by ELISA assay; assay type: functional, tissue-based
[3] = molecular target: T1, Androgen receptor (Homo sapiens) (UniProt P10275); experiment: Agonist activity at human AR; assay type: functional
T1 sequence (whole entry): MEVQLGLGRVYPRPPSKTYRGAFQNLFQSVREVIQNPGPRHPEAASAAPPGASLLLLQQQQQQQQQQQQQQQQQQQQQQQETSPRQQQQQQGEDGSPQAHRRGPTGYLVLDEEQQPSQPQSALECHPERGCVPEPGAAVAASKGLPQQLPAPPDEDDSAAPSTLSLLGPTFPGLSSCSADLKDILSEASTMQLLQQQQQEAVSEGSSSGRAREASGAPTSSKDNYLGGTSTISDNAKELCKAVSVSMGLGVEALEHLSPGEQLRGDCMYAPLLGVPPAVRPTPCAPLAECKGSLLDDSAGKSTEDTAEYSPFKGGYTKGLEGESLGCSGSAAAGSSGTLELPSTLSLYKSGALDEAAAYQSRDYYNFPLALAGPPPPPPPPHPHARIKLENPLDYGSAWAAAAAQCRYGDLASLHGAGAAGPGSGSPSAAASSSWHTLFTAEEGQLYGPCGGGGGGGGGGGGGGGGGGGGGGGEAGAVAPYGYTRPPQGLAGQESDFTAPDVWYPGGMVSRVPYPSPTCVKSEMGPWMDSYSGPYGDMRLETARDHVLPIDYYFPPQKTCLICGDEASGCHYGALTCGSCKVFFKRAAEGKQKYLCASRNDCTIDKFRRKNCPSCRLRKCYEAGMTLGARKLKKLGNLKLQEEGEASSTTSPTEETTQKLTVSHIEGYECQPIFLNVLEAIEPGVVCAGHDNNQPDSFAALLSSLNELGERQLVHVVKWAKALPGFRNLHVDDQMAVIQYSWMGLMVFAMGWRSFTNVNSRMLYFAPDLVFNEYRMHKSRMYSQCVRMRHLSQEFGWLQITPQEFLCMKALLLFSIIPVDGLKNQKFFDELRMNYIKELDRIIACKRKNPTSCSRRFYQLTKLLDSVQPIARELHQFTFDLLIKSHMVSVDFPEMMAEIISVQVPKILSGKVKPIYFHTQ

[4] = Oral bioavailability in rat at 2 mg/kg; assay type: ADME, organism-based; conditions: in vivo
[5] = Antiinflammatory activity in rat assessed as inhibition of LPS-induced lung neutrophilia at 10 ug, intratracheally administered 4 hr prior to LPS challenge measured after 24 hrs; assay type: functional, Neutrophil
[6] = Metabolic stability of compound in human liver microsomes assessed as intrinsic clearance by equilibrium dialysis; assay type: ADME, Microsome
[7] = Metabolic stability in human liver microsomes assessed as phase 2 glucuronidation in presence of UDPGA; assay type: ADME, Microsome; conditions: read-out: Stability
[8] = test system: Rattus norvegicus; experiment: Clearance in rat at 0.5 mg/kg, iv; assay type: ADME, organism-based; parameters: dose 0.5 mg/kg, route intravenous; conditions: in vivo
[9] = Antiinflammatory activity in intratracheally dosed rat assessed as effective dose for inhibition of LPS-induced lung neutrophilia; assay type: functional, Neutrophil
[10] = Antiinflammatory activity in rat assessed as inhibition of LPS-induced lung neutrophilia at 10 ug, intratracheally administered 4 hr prior to LPS challenge measured after 4 hrs; assay type: functional, Neutrophil
[11] = Half life in rat; assay type: ADME, organism-based; conditions: in vivo
[12] = Antiinflammatory activity in rat assessed as inhibition of LPS-induced lung neutrophilia at 10 ug, intratracheally administered 4 hr prior to LPS challenge measured after 8 hrs; assay type: functional, Neutrophil
[13] = test system: Rattus norvegicus; experiment: Unbound clearance in rat at 0.5 mg/kg, iv; assay type: ADME, organism-based; parameters: dose 0.5 mg/kg, route intravenous; conditions: in vivo
[14] = molecular target: T1, Androgen receptor (Homo sapiens); experiment: Antagonist activity at human AR; assay type: functional
[15] = molecular target: T2, Estrogen receptor (Homo sapiens) (UniProt P03372); experiment: Agonist activity at human ER; assay type: functional
T2 sequence (whole entry): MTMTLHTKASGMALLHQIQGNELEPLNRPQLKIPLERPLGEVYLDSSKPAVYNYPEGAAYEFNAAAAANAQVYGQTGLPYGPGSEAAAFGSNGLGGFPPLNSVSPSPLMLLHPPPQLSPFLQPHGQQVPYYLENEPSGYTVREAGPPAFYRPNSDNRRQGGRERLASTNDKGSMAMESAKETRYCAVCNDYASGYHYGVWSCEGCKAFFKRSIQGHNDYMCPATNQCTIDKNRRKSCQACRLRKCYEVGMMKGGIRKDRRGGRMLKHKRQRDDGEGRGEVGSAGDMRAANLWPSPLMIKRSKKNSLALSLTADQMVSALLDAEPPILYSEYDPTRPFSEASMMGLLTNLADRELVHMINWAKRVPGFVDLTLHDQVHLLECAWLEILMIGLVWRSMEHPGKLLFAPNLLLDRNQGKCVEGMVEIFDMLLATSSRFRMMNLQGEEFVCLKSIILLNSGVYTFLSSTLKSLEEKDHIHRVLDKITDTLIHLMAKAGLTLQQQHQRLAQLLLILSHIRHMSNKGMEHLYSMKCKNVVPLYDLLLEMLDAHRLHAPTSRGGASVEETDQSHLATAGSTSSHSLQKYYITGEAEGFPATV

[16] = Antiinflammatory activity in rat assessed as inhibition of LPS-induced lung neutrophilia at 10 ug, intratracheally administered 4 hr prior to LPS challenge measured after 1 hr; assay type: functional, Neutrophil
[17] = molecular target: T2, Estrogen receptor (Homo sapiens); experiment: Antagonist activity at human ER; assay type: functional
[18] = Solubility of compound in simulated lung fluid by dialysis bag method; assay type: physicochemical
[19] = test system: Rattus norvegicus; experiment: Antiinflammatory activity in rat assessed as inhibition of LPS-induced lung neutrophilia 10 ug, intratracheally administered 1 hr prior to LPS challenge measured after 2 hrs; assay type: functional
[20] = Antiinflammatory activity in rat assessed as effective dose for inhibition of LPS-induced lung neutrophilia administered intratracheally 4 hr prior to LPS challenge; assay type: functional, Neutrophil
[21] = Antiinflammatory activity in rat assessed as inhibition of LPS-induced lung neutrophilia 10 ug, intratracheally administered 1 hr prior to LPS challenge measured after 4 hrs; assay type: functional, Neutrophil
[22] = molecular target: T3, Glucocorticoid receptor (Homo sapiens) (UniProt P04150)
T3 sequence (whole entry): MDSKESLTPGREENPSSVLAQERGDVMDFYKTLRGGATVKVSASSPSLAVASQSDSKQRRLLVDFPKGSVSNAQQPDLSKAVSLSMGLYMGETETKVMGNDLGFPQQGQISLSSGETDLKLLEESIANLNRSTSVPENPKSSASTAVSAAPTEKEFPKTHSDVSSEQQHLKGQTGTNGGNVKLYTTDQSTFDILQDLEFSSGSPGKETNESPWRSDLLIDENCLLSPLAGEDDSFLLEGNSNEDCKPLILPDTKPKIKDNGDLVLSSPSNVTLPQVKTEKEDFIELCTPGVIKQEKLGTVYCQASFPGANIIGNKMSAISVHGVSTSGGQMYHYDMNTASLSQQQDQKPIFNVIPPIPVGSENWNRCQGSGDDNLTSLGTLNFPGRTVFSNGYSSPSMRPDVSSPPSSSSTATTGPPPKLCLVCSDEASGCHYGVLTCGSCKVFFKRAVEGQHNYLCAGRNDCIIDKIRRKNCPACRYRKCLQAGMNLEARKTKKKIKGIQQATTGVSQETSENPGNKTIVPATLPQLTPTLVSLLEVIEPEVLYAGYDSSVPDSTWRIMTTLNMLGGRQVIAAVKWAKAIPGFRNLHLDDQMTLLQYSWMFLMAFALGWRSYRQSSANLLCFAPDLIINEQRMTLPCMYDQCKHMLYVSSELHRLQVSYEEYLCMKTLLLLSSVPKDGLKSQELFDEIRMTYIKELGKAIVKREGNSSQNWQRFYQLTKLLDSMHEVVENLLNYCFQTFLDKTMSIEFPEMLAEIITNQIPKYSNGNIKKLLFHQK
Description: Agonist activity at human GR assessed as dissociation half life

[23] = test system: Rattus norvegicus; experiment: Antiinflammatory activity in rat assessed as inhibition of LPS-induced lung neutrophilia 10 ug, intratracheally administered 1 hr prior to LPS challenge measured after 1 hr; assay type: functional
[24] = test system: Liver microsomes; experiment: Metabolic stability of compound in human liver microsomes assessed as unbound intrinsic clearance by equilibrium dialysis; assay type: ADME, Microsome
[25] = Antiinflammatory activity in rat assessed as inhibition of LPS-induced lung neutrophilia 10 ug, intratracheally administered 1 hr prior to LPS challenge measured after 8 hrs; assay type: functional, Neutrophil
[26] = molecular target: T4, Glucocorticoid receptor (Homo sapiens, UniProt P04150)
T4 sequence (P04150 whole entry): T3 sequence (whole entry)
Description: Agonist activity at GR in human SW1353 cells transfected with luciferase gene linked to MMTV promoter assessed as luciferase transactivation activity

SMILES: C[C@]12C=CC(=O)C=C1[C@@H](F)C[C@H]1[C@@H]3C[C@H]4O[C@@H](c5ccc(SCc6ccccc6)cc5)O[C@@]4(C(=O)CO)[C@@]3(C)C[C@H](O)[C@@]12F
IC50 [1]: 0.16 nM

IC50 [2]: 43 nM
SMILES: C[C@@H]1C[C@H]2[C@@H]3C[C@H](F)C4=CC(=O)C=C[C@]4(C)[C@@]3(F)[C@@H](O)C[C@]2(C)[C@@]1(OC(=O)c1ccco1)C(=O)SCF [FLUTICASONE FUROATE]
IC50 [1]: 0.05 nM

SMILES: C[C@]12C=CC(=O)C=C1[C@@H](F)C[C@H]1[C@@H]3C[C@H]4O[C@@H](c5ccc(CSc6cccc(O)c6)cc5)O[C@@]4(C(=O)CO)[C@@]3(C)C[C@H](O)[C@@]12F
IC50 [1]: 0.15 nM

SMILES: C[C@]12C=CC(=O)C=C1[C@@H](F)C[C@H]1[C@@H]3C[C@H]4O[C@@H](c5ccc(Oc6ccccc6)cc5)O[C@@]4(C(=O)CO)[C@@]3(C)C[C@H](O)[C@@]12F
IC50 [1]: 0.09 nM

SMILES: C[C@]12C=CC(=O)C=C1[C@@H](F)C[C@H]1[C@@H]3C[C@H]4O[C@@H](c5ccc(CSc6ccc(O)c(Cl)c6)cc5)O[C@@]4(C(=O)CO)[C@@]3(C)C[C@H](O)[C@@]12F
Activity [3]: inactive
bioavailability [4]: < 1%
inhibition (INH) [5]: 24%
microsomal CLint [6]: 122 µL/min/mg
microsomal CLint [7]: 100 µL/min/mg
clearance [8]: 84 mL/min/kg
ED50 [9]: 36 µg
IC50 [1]: 0.03 nM
inhibition (INH) [10]: 59%
half-life [11]: 168 min
inhibition (INH) [12]: 46%
CL free [13]: > 59000 mL/min/kg
Activity [14]: inactive
Activity [15]: inactive
IC50 [2]: 8.73 nM
inhibition (INH) [16]: 52%
Activity [17]: inactive
solubility [18]: 0.36 µg/mL (≈ 0.535 µM)

bioavailability [4]: < 2%
microsomal CLint [6]: 51 µL/min/mg
microsomal CLint [7]: < 3.5 µL/min/mg
clearance [8]: 56 mL/min/kg
T1/2 [22]: 9.07 h
CL free [24]: 300 µL/min/mg
half-life [11]: 66 min
CL free [13]: 1800 mL/min/kg
IC50 [2]: 9.3 nM
solubility [18]: 0.32 µg/mL (≈ 0.639 µM)
SMILES: CCC(=O)O[C@]1(C(=O)SCF)[C@H](C)C[C@H]2[C@@H]3C[C@H](F)C4=CC(=O)C=C[C@]4(C)[C@@]3(F)[C@@H](O)C[C@@]21C [FLUTICASONE PROPIONATE]
inhibition (INH) [19]: 11%
ED50 [20]: 3 µg
inhibition (INH) [21]: 8%
inhibition (INH) [23]: 29%
IC50 [1]: 0.1 nM
inhibition (INH) [25]: 10%

EC50 [26]: 21.1 nM
SMILES: C[C@]12C=CC(=O)C=C1[C@@H](F)C[C@H]1[C@@H]3C[C@H]4O[C@@H](c5ccc(OC6=CCC(=O)N=N6)cc5)O[C@@]4(C(=O)CO)[C@@]3(C)C[C@H](O)[C@@]12F
IC50 [1]: 0.12 nM

SMILES: C[C@]12C=CC(=O)C=C1[C@@H](F)C[C@H]1[C@@H]3C[C@H]4O[C@@H](c5ccc(-c6ccccc6)cc5)O[C@@]4(C(=O)CO)[C@@]3(C)C[C@H](O)[C@@]12F
IC50 [1]: 0.41 nM

SMILES: C[C@]12C=CC(=O)C=C1[C@@H](F)C[C@H]1[C@@H]3C[C@H]4O[C@@H](c5ccc(CSc6ccc(O)cc6)cc5)O[C@@]4(C(=O)CO)[C@@]3(C)C[C@H](O)[C@@]12F
IC50 [1]: 0.06 nM

SMILES: CSc1cccc(Sc2ccc([C@@H]3O[C@@H]4C[C@H]5[C@@H]6C[C@H](F)C7=CC(=O)C=C[C@]7(C)[C@@]6(F)[C@@H](O)C[C@]5(C)[C@]4(C(=O)CO)O3)cc2)c1
bioavailability [4]: < 0.5%
microsomal CLint [6]: 154 µL/min/mg
microsomal CLint [7]: < 3.5 µL/min/mg
clearance [8]: 26 mL/min/kg
CL free [24]: > 3080 µL/min/mg
IC50 [1]: 0.1 nM
half-life [11]: 114 min
CL free [13]: > 18000 mL/min/kg
IC50 [2]: 47.4 nM

SMILES: C[C@]12C=CC(=O)C=C1[C@@H](F)C[C@H]1[C@@H]3C[C@H]4O[C@@H](c5ccc(Cc6ccc(O)cc6)cc5)O[C@@]4(C(=O)CO)[C@@]3(C)C[C@H](O)[C@@]12F
IC50 [1]: 0.04 nM

SMILES: C[C@]12C=CC(=O)C=C1[C@@H](F)C[C@H]1[C@@H]3C[C@H]4O[C@@H](c5ccc(Cc6ccccc6)cc5)O[C@@]4(C(=O)CO)[C@@]3(C)C[C@H](O)[C@@]12F
IC50 [1]: 0.17 nM

SMILES: C[C@]12C=CC(=O)C=C1[C@@H](F)C[C@H]1[C@@H]3C[C@H]4O[C@@H](c5ccc(CSc6ccccc6)cc5)O[C@@]4(C(=O)CO)[C@@]3(C)C[C@H](O)[C@@]12F
IC50 [1]: 0.22 nM

SMILES: C[C@]12C=CC(=O)C=C1[C@@H](F)C[C@H]1[C@@H]3C[C@H]4O[C@@H](c5ccc(CN6CCOCC6)cc5)O[C@@]4(C(=O)CO)[C@@]3(C)C[C@H](O)[C@@]12F
IC50 [1]: 1.81 nM

IC50 [2]: 8.46 nM
SMILES: CCCC1O[C@@H]2C[C@H]3[C@@H]4CCC5=CC(=O)C=C[C@]5(C)[C@H]4[C@@H](O)C[C@]3(C)[C@]2(C(=O)CO)O1 (stereo partly drawn) [BUDESONIDE]
IC50 [1]: 0.96 nM
